Key:
[1] = molecular target: T1, Polyunsaturated fatty acid 5-lipoxygenase (Homo sapiens, UniProt P09917); test: In vitro inhibition of 5-lipoxygenase from human polymorphs
T1 sequence (P09917 whole entry): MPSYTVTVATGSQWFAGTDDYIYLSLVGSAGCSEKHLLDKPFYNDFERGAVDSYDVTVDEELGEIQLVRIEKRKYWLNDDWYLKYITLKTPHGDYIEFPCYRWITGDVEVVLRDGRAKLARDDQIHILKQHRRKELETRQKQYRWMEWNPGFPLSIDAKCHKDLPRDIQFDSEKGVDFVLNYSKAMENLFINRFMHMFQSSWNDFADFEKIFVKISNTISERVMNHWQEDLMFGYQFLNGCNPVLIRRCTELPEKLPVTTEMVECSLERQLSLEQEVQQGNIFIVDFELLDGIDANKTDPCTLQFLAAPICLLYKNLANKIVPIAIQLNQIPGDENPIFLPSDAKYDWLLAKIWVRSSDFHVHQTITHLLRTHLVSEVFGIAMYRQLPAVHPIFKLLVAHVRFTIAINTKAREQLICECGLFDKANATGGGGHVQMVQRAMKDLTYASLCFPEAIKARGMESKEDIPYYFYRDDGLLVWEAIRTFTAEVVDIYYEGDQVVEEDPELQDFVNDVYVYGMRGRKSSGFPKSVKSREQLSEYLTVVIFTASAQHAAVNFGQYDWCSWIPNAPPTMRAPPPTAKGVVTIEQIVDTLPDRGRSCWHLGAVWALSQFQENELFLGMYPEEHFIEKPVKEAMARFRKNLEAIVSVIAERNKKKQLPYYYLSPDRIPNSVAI

Cyclooxygenase = Cyclooxygenase (Homo sapiens, UniProt P35354+P23219); test: In vitro inhibition of Prostaglandin G/H synthase from human polymorphs; assay type: protein assay

| IC50 [1] | IC50 (Cyclooxygenase) | SMILES |
| --- | --- | --- |
| 50 nM | 5000 nM | CN(O)C(=O)/C=C/c1cccc(Oc2ccccc2)c1 |
| – | 3200 nM | CC(=O)N(O)C/C=C/c1cccc(Oc2ccccc2)c1 |
| 770 nM | 22000 nM | CC(=O)N(O)Cc1ccc(OCc2ccccc2)cc1 |

From ChEMBL document CHEMBL1124047, “Acetohydroxamic acids as potent, selective, orally active 5-lipoxygenase inhibitors” (J Med Chem, 1988)
